Measurements as given in US7211422B2, “Polypeptide having α-isomaltosylglucosaccharide synthase activity” (Kabushiki Kaisha Hayashibara Seibutsu Kagaku Kenkyujo, priority 2001, dated 2007).

What was measured:
[1] = system: polypeptide having α-isomaltosylglucosaccharide-forming enzyme activity, obtained in Experiment 1-3; assay: Reaction product from maltooligosaccharide (sugar composition by HPLC); type: biochemical, Bacillus globisporus C11; design: unit not given here; conditions: 1% (w/v) substrate, 35° C., pH 6.0, 8 hours; for Sugar composition of reaction mixture, substrate Maltopentaose: 0.1 unit/g-solid; for Sugar composition of reaction mixture, substrate Maltotetraose: 0.2 unit/g-solid; for Sugar composition of reaction mixture, substrate Maltotriose / Sugar composition of reaction mixture, substrate Mlatose: two units/g-solid
Description: To an aqueous solution containing one percent (w/v) of maltose, maltotriose, maltotetraose, or maltopentaose as a substrate was added the polypeptide having α-isomaltosylglucosaccgaride-forming enzyme activity, obtained in Experiment 1-3, in an amount of two units/g-solid for maltose and maltotriose, 0.2 unit/g-solid for maltotetraose, and 0.1 unit/g-solid for maltopentaose, followed by incubation at 35° C. and pH 6.0 for 8 hours. After stopping the enzymatic reaction by a 10-minutes incubation, sugar compositions in the reaction mixture were measured by HPLC using “YMC Pack ODS-AQ303”, a column commercialized by YMC Co., Ltd., Tokyo, Japan, at a column temperature of 40° C. and a flow rate of 0.5 ml/minutes of water, and using as a detector “RI-8012”, a differential refractometer commercialized by Tosoh Corporation, Tokyo, Japan.

[2] = system: α-isomaltosylglucosaccharide-forming enzyme from Bacillus globisporus N75; assay: Action on saccharides (TLC before and after enzymatic reaction); type: biochemical; design: key: −: it showed no change; +: it showed a slight reduction of the color spot of the substrate and the formation of other reaction product; ++: it showed a high reduction of the color spot of the substrate and the formationof other reaction product; +++: it showed a substantial disappearance of the substrate spot and the formation of other reaction product; conditions: two units/g substrate, substrate 2% (w/v), 30° C., pH 6.0, 24 hours
Description: (§1) It was tested whether saccharides can be used as substrates for the polypeptide of α-isomaltosylglucosaccharide-forming enzyme of the present invention. For the purpose, a solution of maltose, maltotriose, maltotetraose, maltopentaose, maltohexaose, maltoheptaose, isomaltose, isomaltotriose, panose, isopanose, trehalose, kojibiose, nigerose, neotrehalose, cellobiose, gentibiose, maltitol, maltotriitol, lactose, sucrose, erlose, selaginose, maltosyl glucoside, or isomaltosyl glucoside was prepared.
(§2) To each of the above solutions was added two units/g substrate of a purified polypeptide specimen of α-isomaltosylglucosaccharide-forming enzyme from either Bacillus globisporus C11 obtained by the method in Experiment 1-3, Bacillus globisporus N75 obtained by the method in Experiment 2-3, or Arthrobacter globiformis A19 obtained by the method in Experiment 3-3, and the resulting each solution was adjusted to give a substrate concentration of 2% (w/v) and incubated at 30° C. and pH 6.0, except for using pH 8.4 for the enzyme from Arthrobacter globiformis A19, for 24 hours. In order to analyze the saccharides in the reaction mixture before and after the enzymatic reaction, silica gel thin-layer chromatography (hereinafter, abbreviated as “TLC”) was carried out. After two-times development using, as a developer, a mixture solution of n-butanol, pyridine, and water (=6:4:1), and, as a thin-layer plate, “KIESELGEL 60”, an aluminum plate (20×20 cm) for TLC commercialized by Merck & Co., Inc., Rahway, USA, the saccharides in the reaction mixture were examined whether the enzyme acted or not by the coloration of sugars by the sulfuric acid-methanol method.

[3] = system: α-isomaltosylglucosaccharide-forming enzyme from Bacillus globisporus C11; assay: as above; type: biochemical; design: key: −: it showed no change; +: it showed a slight reduction of the color spot of the substrate and the formation of other reaction product; ++: it showed a high reduction of the color spot of the substrate and the formationof other reaction product; +++: it showed a substantial disappearance of the substrate spot and the formation of other reaction product; conditions: two units/g substrate, substrate 2% (w/v), 30° C., pH 6.0, 24 hours
Description: as §1, §2

[4] = system: α-isomaltosylglucosaccharide-forming enzyme from Arthrobacter globiformis A19; assay: as above; type: biochemical; design: key: −: it showed no change; +: it showed a slight reduction of the color spot of the substrate and the formation of other reaction product; ++: it showed a high reduction of the color spot of the substrate and the formationof other reaction product; +++: it showed a substantial disappearance of the substrate spot and the formation of other reaction product; conditions: two units/g substrate, substrate 2% (w/v), 30° C., pH 8.4, 24 hours
Description: as §1, §2

| Molecule | Sugar composition of reaction mixture, substrate Maltopentaose [1] | Sugar composition of reaction mixture, substrate Maltotetraose [1] | Sugar composition of reaction mixture, substrate Maltotriose [1] | Sugar composition of reaction mixture, substrate Mlatose [1] | Enzyme action, N75 enzyme [2] | Enzyme action, C11 enzyme [3] | Enzyme action, A19 enzyme [4] |
| --- | --- | --- | --- | --- | --- | --- | --- |
| OC[C@H]1O[C@H](OC[C@H]2O[C@H](O[C@H]3[C@H](O)[C@@H](O)[C@@H](O[C@H]4[C@H](O)[C@@H](O)[C@@H](O)O[C@@H]4CO)O[C@@H]3CO)[C@H](O)[C@@H](O)[C@@H]2O)[C@H](O)[C@@H](O)[C@@H]1O [Glucosylmaltotriose, α-isomaltosylmaltose] | 0.0 | 6.8 | 31.5 | 2.4 |  |  |  |
| OC[C@H]1O[C@H](OC[C@H]2O[C@H](O[C@H]3[C@H](O)[C@@H](O)[C@@H](O[C@H]4[C@H](O)[C@@H](O)[C@@H](O[C@H]5[C@H](O)[C@@H](O)C(O)O[C@@H]5CO)O[C@@H]4CO)O[C@@H]3CO)[C@H](O)[C@@H](O)[C@@H]2O)[C@H](O)[C@@H](O)[C@@H]1O (stereo partly drawn) [X, α-isomaltosylmaltotriose] | 11.4 | 30.0 | 2.1 | 0.0 |  |  |  |
| OC[C@H]1O[C@H](O[C@H]2O[C@H](CO)[C@@H](O[C@H]3O[C@H](CO)[C@@H](O)[C@H](O)[C@H]3O)[C@H](O)[C@H]2O)[C@H](O)[C@@H](O)[C@@H]1O [Maltosyl glucoside, maltosyl glucoside] |  |  |  |  | ++ | ++ | ++ |
| OC[C@H]1O[C@H](OC[C@H]2O[C@H](OC[C@H]3OC(O)[C@H](O)[C@@H](O)[C@@H]3O)[C@H](O)[C@@H](O)[C@@H]2O)[C@H](O)[C@@H](O)[C@@H]1O (stereo partly drawn) [Isomaltotriose, isomaltotriose] |  |  |  |  | − | − | − |
| OC[C@H]1O[C@@H](OC[C@H]2OC(O)[C@H](O)[C@@H](O)[C@@H]2O)[C@H](O)[C@@H](O)[C@@H]1O (stereo partly drawn) [Gentibiose, gentibiose] |  |  |  |  | − | − | − |
| OC[C@H]1O[C@@](CO)(O[C@H]2O[C@H](CO)[C@@H](O)[C@H](O)[C@H]2O)[C@@H](O)[C@@H]1O [Sucrose, sucrose] |  |  |  |  | − | − | − |
| OC[C@H]1O[C@H](O[C@H]2[C@H](O)[C@@H](O)[C@@H](O[C@H]3[C@H](O)[C@@H](O)[C@@H](O[C@H]4[C@H](O)[C@@H](O)C(O)O[C@@H]4CO)O[C@@H]3CO)O[C@@H]2CO)[C@H](O)[C@@H](O)[C@@H]1O (stereo partly drawn) [Maltotetraose, maltotetraose] | 19.2 | 35.1 | 1.8 | 0.0 | +++ | +++ | +++ |
| OC[C@H]1O[C@H](O[C@H]2O[C@H](CO)[C@@H](O)[C@H](O)[C@H]2O)[C@H](O)[C@@H](O)[C@@H]1O [Trehalose, trehalose] |  |  |  |  | − | − | − |
| OC[C@H]1O[C@H](OC[C@H]2O[C@H](O[C@H]3[C@H](O)[C@@H](O)C(O)O[C@@H]3CO)[C@H](O)[C@@H](O)[C@@H]2O)[C@H](O)[C@@H](O)[C@@H]1O (stereo partly drawn) [Panose, panose] | 0.0 | 0.0 | 1.2 | 8.2 | − | − | − |
| O=C[C@H](O)[C@@H](O)[C@H](O[C@@H]1O[C@H](CO)[C@@H](O)[C@H](O)[C@H]1O)[C@H](O)CO [Cellobiose, cellobiose] |  |  |  |  | − | − | − |
| maltohexaose | 4.6 | 0.0 | 0.0 | 0.0 | +++ | +++ | +++ |
| OC[C@H]1O[C@@H](O[C@H]2[C@H](O)[C@@H](O)C(O)O[C@@H]2CO)[C@H](O)[C@@H](O)[C@H]1O (stereo partly drawn) [Lactose, lactose] |  |  |  |  | − | − | − |
| OC[C@@H](O)[C@@H](O[C@H]1O[C@H](CO)[C@@H](O)[C@H](O)[C@H]1O)[C@H](O)[C@@H](O)CO [Maltitol, maltitol] |  |  |  |  | − | − | − |
| OC[C@H]1O[C@H](O[C@H]2[C@H](O)[C@@H](O)[C@@H](OC[C@H]3OC(O)[C@H](O)[C@@H](O)[C@@H]3O)O[C@@H]2CO)[C@H](O)[C@@H](O)[C@@H]1O (stereo partly drawn) [Isopanose, isopanose] |  |  |  |  | ++ | ++ | ++ |
| maltopentaose | 34.4 | 3.5 | 0.0 | 0.0 | +++ | +++ | +++ |
| isomaltosyl glucoside |  |  |  |  | − | − | − |
| OC[C@H]1O[C@H](O[C@H]2O[C@H](CO)[C@@H](O)[C@H](O)[C@H]2O[C@H]2O[C@H](CO)[C@@H](O)[C@H](O)[C@H]2O)[C@H](O)[C@@H](O)[C@@H]1O [Selaginose, selaginose] |  |  |  |  | − | − | − |
| maltoheptaose |  |  |  |  | +++ | +++ | +++ |
| maltotriose | 1.9 | 22.7 | 45.3 | 0.8 | ++ | ++ | ++ |
| OC[C@H]1O[C@H](OC[C@H]2OC(O)[C@H](O)[C@@H](O)[C@@H]2O)[C@H](O)[C@@H](O)[C@@H]1O (stereo partly drawn) [Isomaltose, isomaltose] | 0.0 | 0.0 | 0.0 | 0.5 | − | − | − |
| OC[C@H]1O[C@H](OC[C@H]2O[C@H](O[C@H]3[C@H](O)[C@@H](O)[C@@H](O[C@H]4[C@H](O)[C@@H](O)[C@@H](O[C@H]5[C@H](O)[C@@H](O)[C@@H](O[C@H]6[C@H](O)[C@@H](O)C(O)O[C@@H]6CO)O[C@@H]5CO)O[C@@H]4CO)O[C@@H]3CO)[C@H](O)[C@@H](O)[C@@H]2O)[C@H](O)[C@@H](O)[C@@H]1O (stereo partly drawn) [Y, α-isomaltosylmaltotetraose] | 26.8 | 1.4 | 0.0 | 0.0 |  |  |  |
